Data reported in PMC8041284, “Tunable Methacrylamides for Covalent Ligand Directed Release Chemistry” (Journal of the American Chemical Society, 2021).

Each molecule was assayed against BTK (Homo sapiens, UniProt Q06187) (assay: biochemical). Conditions: read-out: BTK inhibition (%).
Sequence of BTK (Q06187 402-655 limits assumed): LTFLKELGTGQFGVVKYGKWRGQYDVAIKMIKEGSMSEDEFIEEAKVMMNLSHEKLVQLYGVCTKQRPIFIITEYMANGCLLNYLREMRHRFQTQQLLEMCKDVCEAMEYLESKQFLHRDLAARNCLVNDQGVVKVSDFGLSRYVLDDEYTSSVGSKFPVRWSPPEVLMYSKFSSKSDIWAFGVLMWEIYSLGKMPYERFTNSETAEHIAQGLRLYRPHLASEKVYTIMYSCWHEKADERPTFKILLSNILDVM

Compound | inhibition at 10 µM [%]
C/C(=C\c1csc(C)n1)[C@@H]1C[C@@H]2O[C@@H]2CCC[C@H](C)[C@H](O)[C@@H](C)C(=O)C(C)(C)[C@@H](O)CC(=O)O1 [PCM-0095086] | 1.6
C[C@]12CCC(=O)C(O)=C1CC[C@@H]1[C@@H]2CC[C@]2(C)C(=O)CC[C@@H]12 [PCM-0214668] | -1.4

Same assay, conditions: read-out: BTK inhibition (%), 0.75 uM BTK, […] probe 3l, 15 min preincubation

Compound | inhibition at 10 µM [%]
CCS(=O)(=O)N1CC(CC#N)(n2cc(-c3ncnc4[nH]ccc34)cn2)C1 [PCM-0095473] | -20
C1N2CN3CN1CN(C2)C3 [PCM-0086204] | -8.6
CN1[C@@H]2CCC[C@H]1CC(NC(=O)c1nn(C)c3ccccc13)C2 (stereo partly shown) [PCM-0064932] | 10.2
CC(C)(C)C1CCC(CC2=C(O)c3ccccc3C(=O)C2=O)CC1 (stereo not shown) [PCM-0214772] | 3.1
Cn1cc(C2=C(c3cn(CCCSC(=N)N)c4ccccc34)C(=O)NC2=O)c2ccccc21 [PCM-0215237] | 117
COC(=O)C1=CO[C@@H](O[C@@H]2O[C@H](CO)[C@@H](O)[C@H](O)[C@H]2O)[C@@H]2[C@H](C)O[C@@H](O)C[C@H]12 [PCM-0216177] | -19.3
NN1CC(=O)NC1=O [PCM-0216229] | -7.8
CCc1cc(C(N)=S)ccn1 [PCM-0086071] | -14.8
CNS(=O)(=O)Nc1nccc(Cc2c(C)c3ccc(Oc4ncccn4)cc3oc2=O)c1F [PCM-0215552] | 17.9
CNCc1ccc(-c2[nH]c3cc(F)cc4c3c2CCNC4=O)cc1 [PCM-0095075] | 18.6
C=C(CCC=C(C)C)[C@H]1CC[C@]2(C)[C@@H]1[C@H](O)C[C@@H]1[C@@]3(C)CC[C@H](O[C@@H]4O[C@H](CO)[C@@H](O)[C@H](O)[C@H]4O[C@@H]4O[C@H](CO)[C@@H](O)[C@H](O)[C@H]4O)C(C)(C)[C@@H]3CC[C@]12C [PCM-0216466] | 6.2
Cc1c[nH]c(=O)[nH]c1=O [PCM-0216631] | 14.7
NC(=O)CN1CCCC1=O [PCM-0064964] | -16.3
CC(=O)O[C@]1(C(C)=O)CC[C@H]2[C@@H]3C=C(C)C4=CC(=O)CC[C@]4(C)[C@H]3CC[C@@]21C [PCM-0214613] | -4.8
CN1CCc2nc(C(=O)N[C@@H]3C[C@@H](C(=O)N(C)C)CC[C@@H]3NC(=O)C(=O)Nc3ccc(Cl)cn3)sc2C1 [PCM-0216277] | -4.6
NC(=O)c1ccc(I)c([N+](=O)[O-])c1 [PCM-0095053] | -1.4
CN(CCN1CCC(OC(=O)Nc2ccccc2-c2ccccc2)CC1)C(=O)c1ccc(CN2CCC(C(N)=O)CC2)cc1 [PCM-0216137] | -10
Cn1cc(/C=C2\C(=O)Nc3cccnc32)c2ccccc21 [PCM-0095342] | 22.8
OC[C@H]1O[C@H](OC[C@H]2O[C@H](OC[C@H]3O[C@H](O[C@]4(CO)O[C@H](CO)[C@@H](O)[C@@H]4O)[C@H](O)[C@@H](O)[C@@H]3O)[C@H](O)[C@@H](O)[C@H]2O)[C@H](O)[C@@H](O)[C@H]1O [PCM-0216230] | 17.8
CC(C)C[C@H](NC(=O)CNC(=O)c1cc(Cl)ccc1Cl)B(O)O [PCM-0095224] | 5.4
OCCN1C[C@H](O)[C@@H](O)[C@H](O)[C@H]1CO [PCM-0086065] | -23.3
CCCN(CCC)S(=O)(=O)c1ccc(C(=O)O)cc1 [PCM-0086122] | -4.7
CC(C)(C)c1cc(O)c(C(C)(C)C)cc1O [PCM-0214931] | 26.5
c1ccc(CNc2nc(NCc3ccccc3)c3ccccc3n2)cc1 [PCM-0215216] | 10.8
CNc1nc(-c2ccc3c(N)n[nH]c3c2)cc(N2C[C@@H](C(=O)NC3CCCCC3)CC[C@H]2C)n1 [PCM-0095768] | 24.1

Compound | inhibition at 10 µM [%]
C=C1CCN([C@H](C)[C@](O)(Cn2cncn2)c2ccc(F)cc2F)CC1 [PCM-0215992] | -13.1
NNc1nncc2ccccc12 [PCM-0065163] | -0.9
C[C@@H](c1nc(-c2ccc(C#N)cc2)cs1)[C@](O)(Cn1cncn1)c1cc(F)ccc1F [PCM-0214918] | -14
NC(=O)N/N=C/c1ccc([N+](=O)[O-])o1 [PCM-0085977] | 0.8
COC(=O)C1=CO[C@@H](O[C@@H]2O[C@H](CO)[C@@H](O)[C@H](O)[C@H]2O)[C@@H]2C(CO)=CC[C@H]12 [PCM-0087450] | -1.6
Nc1cccc(S(=O)(=O)N2CCCN(S(=O)(=O)c3ccc4c(c3)OCCO4)CC2)c1 [PCM-0215556] | -2.8
Cc1cn(CCN2CCN(c3ccccc3-c3cc(C#N)cc(C(=O)NCCCN4CCCC4)c3)CC2)c2ccccc12 [PCM-0215709] | 27
CC(=O)c1ccc(O)cc1O [PCM-0215067] | 9.3
C=C[C@@]1(C)CC(=O)[C@]2(O)[C@@]3(C)[C@@H](O)CCC(C)(C)[C@@H]3[C@H](O)[C@H](OC(C)=O)[C@@]2(C)O1 [PCM-0095317] | -17.1
N#C/C(=C(\O)c1ccc(Cl)cc1Cl)c1nc2ccccc2c(=O)[nH]1 [PCM-0215733] | -6.9
O=C(O)c1cc(O)ccc1O [PCM-0215019] | -21.4
O=Cc1ccc(O[C@@H]2O[C@H](CO)[C@@H](O)[C@@H](O)[C@H]2O)cc1 [PCM-0215018] | 7
O=C1N=C(N2CCOCC2)CN1c1ccc(Cl)cc1 [PCM-0216140] | -1.5
C/C=C(/C)C(=O)O [PCM-0215002] | 14.5
CCOC(=O)N1CCN(c2ccc(OC[C@H]3CO[C@](Cn4ccnc4)(c4ccc(Cl)cc4Cl)O3)cc2)CC1 [PCM-0216072] | 8.5
N#CC(=C(N)Sc1ccc(N)cc1)c1ccccc1C(F)(F)F [PCM-0095011] | -28.3
CCCCCCCCC[C@H](O)CC(=O)CCc1ccc(O)c(OC)c1 [PCM-0216384] | -10.8
O=S(=O)(O)NC1CCCCC1 [PCM-0090618] | 3.9
COc1cccc(C(N)=O)c1 [PCM-0216109] | 2.3
CCCNS(=O)(=O)Nc1ncnc(OCCOc2ncc(Br)cn2)c1-c1ccc(Br)cc1 [PCM-0095633] | 10
Cc1cc(SCc2sc(-c3ccc(C(F)(F)F)cc3)nc2C)ccc1OCC(=O)O [PCM-0215226] | 23.9
O=C(Nc1ccc(Br)cc1)c1c(O)cccc1O [PCM-0215136] | 3.9
O=C1Cc2ccccc2N1 [PCM-0215133] | 1.6
O=C(NOCCO)c1ccc2cncn2c1Nc1ccc(I)cc1F [PCM-0215498] | 28.3
O=C1c2c(O)cccc2[C@H]([C@@H]2O[C@H](CO)[C@@H](O)[C@H](O)[C@H]2O)c2cc(CO)cc(O)c21 [PCM-0094826] | 21

Compound | inhibition at 10 µM [%]
CCN1CCC[C@H]1CNC(=O)c1cc(S(N)(=O)=O)ccc1OC [PCM-0065527] | -6.2
Cc1ccc(C(C)C)cc1O [PCM-0215926] | -21.4
CCOC(=O)c1ncn2c1CN(C)C(=O)c1cc(F)ccc1-2 [PCM-0065129] | 3.1
O=c1c(-c2ccc(O)cc2)coc2cc(O[C@@H]3O[C@H](CO)[C@@H](O)[C@H](O)[C@H]3O)ccc12 [PCM-0214779] | 10.9
N[C@@H]1CCCCN(c2c(F)cc3c(=O)c(C(=O)O)cn(C4CC4)c3c2Cl)C1 [PCM-0095545] | -15.3
CC(=O)OCC(=O)NCCCOc1cccc(CN2CCCCC2)c1 [PCM-0086003] | -3.4
O=C(Nc1ccccc1)Nc1ccc(-c2ccc(C(=O)[C@@H]3CCC[C@H]3C(=O)O)cc2)cc1 [PCM-0095351] | 22.6
CC(C)C[C@H](NC(=O)CNC(=O)[C@H](Cc1ccc(O)cc1)NC(=O)[C@H](CO)NC(=O)[C@H](Cc1c[nH]c2ccccc12)NC(=O)[C@H](Cc1cnc[nH]1)NC(=O)[C@@H]1CCC(=O)N1)C(=O)N[C@@H](CCCN=C(N)N)C(=O)N1CCC[C@H]1C(=O)NCC(N)=O [PCM-0216273] | -5.1
C=CC(=O)Nc1cccc(Oc2nc(Nc3ccc(N4CCN(C)CC4)cc3OC)ncc2Cl)c1 [PCM-0095043] | 89
CC12CCC(CC1)C(C)(C)O2 [PCM-0215918] | 11
Cc1nc(-c2ccc(OCC(C)C)c(C#N)c2)sc1C(=O)O [PCM-0090390] | -3.4
COc1ccc2cc(-c3nc(-c4ccc([S+](C)[O-])cc4)[nH]c3-c3ccncc3)ccc2c1 (stereo not shown) [PCM-0095143] | 33.8
C[C@]12CC[C@H]3[C@@H](CC=C4CC(O)CC[C@@]43C)[C@@H]1CC[C@@H]2C(O)CC(O)(C(F)(F)F)C(F)(F)F (stereo partly shown) [PCM-0215756] | 11.6
CC(C)n1c([C@H](C)Nc2ncnc(N)c2C#N)cc2cccc(-c3ccc(=O)n(C)c3)c2c1=O [PCM-0215961] | -11.6
O=C(/C=C/c1ccc(O)c2c1[C@H](C(=O)O[C@H](Cc1ccc(O)c(O)c1)C(=O)O)[C@@H](c1ccc(O)c(O)c1)O2)O[C@H](Cc1ccc(O)c(O)c1)C(=O)O [PCM-0214854] | -34.2
Clc1ccc(C(Cn2ccnc2)OCc2ccc(Sc3ccccc3)cc2)c(Cl)c1 (stereo not shown) [PCM-0095311] | 100
COc1cc2nccc(Oc3ccc(NC(=O)Nc4cc(C)on4)c(Cl)c3)c2cc1OC [PCM-0094927] | 84.1
CCN(CC)C(=O)/C(C#N)=C/c1cc(O)c(O)c([N+](=O)[O-])c1 [PCM-0085960] | 38.1
COCCCC/C(=N\OCCN)c1ccc(C(F)(F)F)cc1 [PCM-0065088] | -8.6
CC(=O)OCC1=C[C@@H]2OC(=O)C3=CO[C@@H](O[C@@H]4O[C@H](CO)[C@@H](O)[C@H](O)[C@H]4O)[C@H]1[C@@H]32 [PCM-0216352] | 10.8
COc1cc(OCc2cccc(-c3ccccc3)c2C)cc(OC)c1CN1CCCC[C@H]1C(=O)O [PCM-0215607] | -35.2
Nc1nc2c(c(=O)[nH]1)N(C=O)C(CNc1ccc(C(=O)N[C@@H](CCC(=O)O)C(=O)O)cc1)CN2 (stereo partly shown) [PCM-0086396] | -17.9
NCC(=O)Nc1ccc(-n2nc(C(F)(F)F)cc2-c2ccc3c(ccc4ccccc43)c2)cc1 [PCM-0094886] | 70.3
CCCCC[C@H](O)/C=C/[C@H]1[C@H](O)CC(=O)[C@@H]1CCCCCCC(=O)O [PCM-0086285] | 6.9
